According to ChEMBL document CHEMBL1132082, “Nonsteroidal androgen receptor agonists based on 4-(trifluoromethyl)-2H-pyrano[3,2-g]quinolin-2-one” (Bioorg Med Chem Lett, 1999):

Assays:
Androgen receptor [1] = molecular target: T1, Androgen receptor (Homo sapiens, UniProt P10275)
T1 sequence (P10275 whole entry): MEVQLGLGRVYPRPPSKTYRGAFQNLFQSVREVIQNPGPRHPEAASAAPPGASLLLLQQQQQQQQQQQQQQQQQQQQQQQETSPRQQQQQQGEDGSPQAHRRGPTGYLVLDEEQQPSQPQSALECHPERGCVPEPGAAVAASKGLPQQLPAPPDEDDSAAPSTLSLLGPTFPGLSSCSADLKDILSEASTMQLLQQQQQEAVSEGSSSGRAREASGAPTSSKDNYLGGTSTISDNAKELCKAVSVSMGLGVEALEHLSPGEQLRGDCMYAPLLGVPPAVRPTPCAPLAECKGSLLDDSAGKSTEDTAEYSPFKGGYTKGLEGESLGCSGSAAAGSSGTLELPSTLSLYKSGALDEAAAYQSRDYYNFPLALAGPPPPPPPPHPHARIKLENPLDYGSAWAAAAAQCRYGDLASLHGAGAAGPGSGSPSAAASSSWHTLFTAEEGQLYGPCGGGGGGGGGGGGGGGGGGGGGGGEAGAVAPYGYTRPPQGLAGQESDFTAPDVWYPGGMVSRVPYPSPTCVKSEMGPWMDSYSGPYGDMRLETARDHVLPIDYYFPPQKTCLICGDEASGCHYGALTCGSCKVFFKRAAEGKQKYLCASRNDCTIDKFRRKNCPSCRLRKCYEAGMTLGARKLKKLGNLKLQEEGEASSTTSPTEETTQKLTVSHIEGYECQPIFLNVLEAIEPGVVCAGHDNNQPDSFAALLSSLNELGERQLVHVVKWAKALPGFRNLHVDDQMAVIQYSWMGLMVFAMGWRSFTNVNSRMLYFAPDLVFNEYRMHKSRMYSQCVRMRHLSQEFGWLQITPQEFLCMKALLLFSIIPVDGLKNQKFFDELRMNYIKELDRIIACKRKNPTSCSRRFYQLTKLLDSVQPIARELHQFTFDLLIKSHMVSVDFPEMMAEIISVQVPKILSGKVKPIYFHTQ
Description: In vitro agonistic activity against human androgen receptor using cotransfection assay in CV-1 cells.

Glucocorticoid receptor [2] = molecular target: T2, Glucocorticoid receptor (Homo sapiens, UniProt P04150); assay: In vitro antagonistic activity against human glucocorticoid receptor (hGR); not active; format: functional
T2 sequence (P04150 whole entry): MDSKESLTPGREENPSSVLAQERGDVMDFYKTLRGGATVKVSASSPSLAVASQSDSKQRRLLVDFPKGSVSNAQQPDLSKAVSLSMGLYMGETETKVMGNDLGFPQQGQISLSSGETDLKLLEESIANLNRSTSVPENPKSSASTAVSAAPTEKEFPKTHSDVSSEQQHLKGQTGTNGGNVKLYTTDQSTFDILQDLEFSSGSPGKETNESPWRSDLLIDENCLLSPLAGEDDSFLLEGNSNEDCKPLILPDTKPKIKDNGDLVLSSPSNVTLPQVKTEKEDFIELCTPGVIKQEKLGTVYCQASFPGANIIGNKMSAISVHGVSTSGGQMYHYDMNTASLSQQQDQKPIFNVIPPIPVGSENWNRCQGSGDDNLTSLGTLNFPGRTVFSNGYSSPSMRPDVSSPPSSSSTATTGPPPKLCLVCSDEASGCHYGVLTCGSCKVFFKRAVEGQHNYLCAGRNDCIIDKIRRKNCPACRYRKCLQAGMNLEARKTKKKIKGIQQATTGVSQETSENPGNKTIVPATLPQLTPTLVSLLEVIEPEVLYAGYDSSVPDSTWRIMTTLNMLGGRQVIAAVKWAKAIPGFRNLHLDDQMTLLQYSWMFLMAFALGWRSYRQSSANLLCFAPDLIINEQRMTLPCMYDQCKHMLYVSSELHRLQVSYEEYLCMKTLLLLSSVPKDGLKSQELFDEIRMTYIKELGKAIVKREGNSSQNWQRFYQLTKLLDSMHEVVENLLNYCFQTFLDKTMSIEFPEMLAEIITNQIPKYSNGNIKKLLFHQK

[3] = molecular target: T3, Mineralocorticoid receptor (Homo sapiens, UniProt P08235); assay: (§1) In vitro antagonistic activity against human mineralocorticoid receptor (hMR); format: functional
T3 sequence (P08235 whole entry): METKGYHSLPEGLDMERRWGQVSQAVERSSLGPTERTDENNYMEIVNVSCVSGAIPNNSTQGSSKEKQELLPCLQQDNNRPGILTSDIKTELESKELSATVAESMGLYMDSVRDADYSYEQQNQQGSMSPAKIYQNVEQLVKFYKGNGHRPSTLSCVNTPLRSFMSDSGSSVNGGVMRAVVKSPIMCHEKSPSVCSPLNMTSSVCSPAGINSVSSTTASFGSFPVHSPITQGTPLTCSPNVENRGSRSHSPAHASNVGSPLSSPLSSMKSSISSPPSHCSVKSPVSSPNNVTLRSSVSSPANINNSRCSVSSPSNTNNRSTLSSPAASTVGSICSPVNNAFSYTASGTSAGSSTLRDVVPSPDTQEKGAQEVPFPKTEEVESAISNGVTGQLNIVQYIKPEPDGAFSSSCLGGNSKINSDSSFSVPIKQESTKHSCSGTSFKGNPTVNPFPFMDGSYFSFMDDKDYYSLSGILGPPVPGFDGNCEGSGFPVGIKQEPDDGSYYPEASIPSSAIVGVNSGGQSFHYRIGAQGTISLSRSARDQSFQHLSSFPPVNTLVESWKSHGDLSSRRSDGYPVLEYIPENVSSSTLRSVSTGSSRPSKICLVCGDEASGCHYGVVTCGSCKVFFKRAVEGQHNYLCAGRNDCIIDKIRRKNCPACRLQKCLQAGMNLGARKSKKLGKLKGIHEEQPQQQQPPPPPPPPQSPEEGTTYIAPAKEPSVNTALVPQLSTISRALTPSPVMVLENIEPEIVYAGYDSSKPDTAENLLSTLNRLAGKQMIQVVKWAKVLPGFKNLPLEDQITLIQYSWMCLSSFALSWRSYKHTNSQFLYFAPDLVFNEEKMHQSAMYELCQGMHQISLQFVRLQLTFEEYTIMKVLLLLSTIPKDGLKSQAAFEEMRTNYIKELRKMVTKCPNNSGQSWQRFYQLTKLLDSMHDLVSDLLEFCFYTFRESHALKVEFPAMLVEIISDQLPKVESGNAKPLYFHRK

Progesterone receptor = molecular target: T4, Progesterone receptor (Homo sapiens, UniProt P06401); assay: (§2) In vitro antagonistic activity against human progesterone receptor (hPR); format: functional
T4 sequence (P06401 whole entry): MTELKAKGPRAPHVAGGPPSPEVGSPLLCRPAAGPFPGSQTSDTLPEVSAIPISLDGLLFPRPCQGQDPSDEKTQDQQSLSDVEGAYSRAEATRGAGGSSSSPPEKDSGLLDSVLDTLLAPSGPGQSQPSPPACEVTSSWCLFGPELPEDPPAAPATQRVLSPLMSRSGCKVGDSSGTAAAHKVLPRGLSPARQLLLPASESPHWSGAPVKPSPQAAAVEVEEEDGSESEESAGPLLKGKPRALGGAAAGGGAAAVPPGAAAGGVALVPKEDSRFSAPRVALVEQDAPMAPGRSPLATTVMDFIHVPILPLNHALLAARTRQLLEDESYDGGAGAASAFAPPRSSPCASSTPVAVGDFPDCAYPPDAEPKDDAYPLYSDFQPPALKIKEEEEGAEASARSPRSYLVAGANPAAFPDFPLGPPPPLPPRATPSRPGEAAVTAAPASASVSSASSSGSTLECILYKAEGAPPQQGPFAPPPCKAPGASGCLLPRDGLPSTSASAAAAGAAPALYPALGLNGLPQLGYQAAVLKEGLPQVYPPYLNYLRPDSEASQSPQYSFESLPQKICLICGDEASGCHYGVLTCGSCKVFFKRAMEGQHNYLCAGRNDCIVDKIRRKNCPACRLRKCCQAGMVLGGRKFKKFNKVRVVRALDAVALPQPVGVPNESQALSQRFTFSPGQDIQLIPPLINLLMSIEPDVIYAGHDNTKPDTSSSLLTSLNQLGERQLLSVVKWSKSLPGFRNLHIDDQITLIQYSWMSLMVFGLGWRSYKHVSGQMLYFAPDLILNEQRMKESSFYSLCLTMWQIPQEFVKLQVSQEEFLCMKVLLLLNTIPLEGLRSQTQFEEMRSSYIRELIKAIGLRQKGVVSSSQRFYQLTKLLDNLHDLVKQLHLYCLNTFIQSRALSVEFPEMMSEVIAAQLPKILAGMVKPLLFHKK

[4] = molecular target: T5, Progesterone receptor (Homo sapiens) (UniProt P06401); assay: as §2; format: functional
T5 sequence (whole entry): T4 sequence (P06401 whole entry)

Androgen receptor [5] = molecular target: T1, Androgen receptor; assay: biochemical
Description: In vitro binding affinity at human androgen receptor transfected into COS cells.

[6] = molecular target: T6, Mineralocorticoid receptor (Homo sapiens) (UniProt P08235); assay: as §1; format: functional
T6 sequence (whole entry): T3 sequence (P08235 whole entry)

Estrogen receptor [7] = molecular target: T7, Estrogen receptor (Homo sapiens, UniProt Q92731+P03372); assay: (§3) In vitro antagonistic activity against human estrogen receptor (hER); format: functional
Androgen receptor [8] = molecular target: T1, Androgen receptor; remark: listed apart in the source
Estrogen receptor [9] = molecular target: T7, Estrogen receptor; assay: In vitro antagonistic activity against human estrogen receptor (hER); not active; format: functional
Androgen receptor [10] = molecular target: T1, Androgen receptor; remark: listed apart in the source
[11] = molecular target: T3, Mineralocorticoid receptor; assay: In vitro antagonistic activity against human mineralocorticoid receptor (hMR); not active; format: functional
Glucocorticoid receptor [12] = molecular target: T2, Glucocorticoid receptor; assay: In vitro antagonistic activity against human glucocorticoid receptor (hGR); format: functional
Estrogen receptor [13] = molecular target: T7, Estrogen receptor; assay: as §3; format: functional; remark: listed apart in the source
Estrogen receptor [14] = molecular target: T7, Estrogen receptor; assay: In vitro antagonistic activity against human estrogen receptor (hER); Not active; format: functional

CC1(C)CCc2cc3c(C(F)(F)F)cc(=O)oc3cc2N1
EC50 (Androgen receptor [1]): 0.009 µM
IC50 (Glucocorticoid receptor [2]): > 10 µM
IC50 [3]: 1.5 µM
IC50 (Progesterone receptor): 0.57 µM
Efficacy [4]: 84%
IC50 (Androgen receptor [5]): 0.001 µM
Efficacy [6]: 50%
Efficacy (Estrogen receptor [7]): < 20%
IC50 (Androgen receptor [8]): > 0.01 µM
IC50 (Estrogen receptor [9]): > 10 µM

CC[C@H]1C[C@@H](C)Nc2cc3oc(=O)cc(C(F)(F)F)c3cc21 (relative stereo)
EC50 (Androgen receptor [1]): 0.027 µM
EC50 (Androgen receptor [10]): 0.016 µM
IC50 (Androgen receptor [5]): 0.012 µM

CCC1CCc2cc3c(C(F)(F)F)cc(=O)oc3cc2N1 (centres undefined)
EC50 (Androgen receptor [1]): 0.007 µM
IC50 (Androgen receptor [5]): 0.001 µM
IC50 (Androgen receptor [8]): > 0.01 µM

CCC1CCN(C)c2cc3oc(=O)cc(C(F)(F)F)c3cc21 (centres undefined)
EC50 (Androgen receptor [1]): 0.209 µM
IC50 (Androgen receptor [5]): 0.276 µM
IC50 (Androgen receptor [8]): > 0.01 µM

CCC1CC(C)c2cc3c(C(F)(F)F)cc(=O)oc3cc2N1 (cis isomer)
EC50 (Androgen receptor [1]): 0.008 µM
IC50 (Androgen receptor [5]): 0.011 µM
IC50 (Androgen receptor [8]): > 0.01 µM

CC1=CC(C)(C)Nc2cc3oc(=O)cc(C(F)(F)F)c3cc21
IC50 [11]: > 10 µM
IC50 (Glucocorticoid receptor [2]): > 10 µM
IC50 (Progesterone receptor): 0.1 µM
Efficacy [4]: 79%
Efficacy [6]: < 20%
Efficacy (Estrogen receptor [7]): < 20%
IC50 (Estrogen receptor [9]): > 10 µM

O=c1cc(C(F)(F)F)c2cc3c(cc2o1)NCCC3C(F)(F)C(F)(F)F (centres undefined)
EC50 (Androgen receptor [1]): 0.013 µM
IC50 (Androgen receptor [5]): 0.005 µM
IC50 (Androgen receptor [8]): > 0.01 µM

CC[C@@H]1c2cc3c(C(F)(F)F)cc(=O)oc3cc2NC[C@H]1C (relative stereo)
EC50 (Androgen receptor [1]): 0.001 µM
IC50 [3]: 3 µM
IC50 (Progesterone receptor): 0.13 µM
Efficacy [4]: 98%
IC50 (Glucocorticoid receptor [12]): 2.3 µM
IC50 (Androgen receptor [5]): 0.0003 µM
Efficacy [6]: 60%
Efficacy (Estrogen receptor [7]): < 20%
IC50 (Androgen receptor [8]): > 0.01 µM
IC50 (Estrogen receptor [9]): > 10 µM

CC[C@H]1c2cc3c(C(F)(F)F)cc(=O)oc3cc2NC[C@H]1C (relative stereo)
EC50 (Androgen receptor [1]): 0.007 µM
IC50 [3]: 2.8 µM
IC50 (Estrogen receptor [13]): 3.1 µM
IC50 (Progesterone receptor): 0.13 µM
Efficacy [4]: 87%
IC50 (Glucocorticoid receptor [12]): 0.34 µM
IC50 (Androgen receptor [5]): 0.002 µM
Efficacy [6]: 39%
Efficacy (Estrogen receptor [7]): 33%
IC50 (Androgen receptor [8]): > 0.01 µM

CCC1CC(CC)c2cc3c(C(F)(F)F)cc(=O)oc3cc2N1 (trans isomer)
EC50 (Androgen receptor [1]): 0.026 µM
IC50 (Androgen receptor [5]): 0.007 µM
IC50 (Androgen receptor [8]): > 0.01 µM

CC[C@@H]1CNc2cc3oc(=O)cc(C(F)(F)F)c3cc2[C@H]1CC (stereo in doubt)
EC50 (Androgen receptor [1]): 0.005 µM
IC50 (Estrogen receptor [14]): > 10 µM
IC50 [3]: 1.9 µM
EC50 (Androgen receptor [10]): 1.4 µM
IC50 (Progesterone receptor): 0.065 µM
Efficacy [4]: 98%
IC50 (Glucocorticoid receptor [12]): 2.8 µM
Efficacy [6]: 50%
Efficacy (Estrogen receptor [7]): < 20%

CC[C@H]1CNc2cc3oc(=O)cc(C(F)(F)F)c3cc2[C@@H]1CC (stereo in doubt)
EC50 (Androgen receptor [1]): 0.005 µM
IC50 (Androgen receptor [8]): > 0.01 µM

O=c1cc(C(F)(F)F)c2cc3c(cc2o1)NCCC3
EC50 (Androgen receptor [1]): 0.019 µM
IC50 (Androgen receptor [5]): 0.001 µM
IC50 (Androgen receptor [8]): > 0.01 µM
